In brackets after ≈: the same amount, converted by molar mass. Several values for one entry are separate records, joined by “and”; a condition that tells them apart may be missing. Equal entries are not always repeated. Each block holds one compound with its values, some of them ahead of it. Positions of bridges follow the written chain, without caps; N, C: chain ends. Non-standard residues stand in square brackets, D forms with d. Residues, ends and D or L forms follow the SMILES beside them. Chains are numbered I, II in the order given. *: point of attachment. 5FAM = O=C1OC2(c3ccc(O)cc3Oc3cc(O)ccc32)c2ccc(C(=O)*)cc21; hPhe = N[C@@H](CCc1ccccc1)C(=O)O; Ahx = NCCCCCC(=O)O
How the values were obtained:
Type in all cases: cell-based
[1] = MTT cytotoxicity assay in HeLa cells; conditions: human
Description: MTT assays were conducted in HeLa cells to evaluate the effect of fluorescent probe incorporation on the in vitro cytotoxic activity of the parent non-conjugated peptides. The cytotoxic effect of peptides 1, Abz-1 RhB-1, 2, and RhB-2 in HeLa cells was peptide concentration-dependent, with the highest anticancer activity observed at 200 µg/mL. Incorporation of 2-Abz and RhB at the N-terminal end reduced cytotoxic activity, while the binding of 2-Abz at the C-terminal end or FAM at the N-terminal end drastically diminished anticancer activity (Table 4).

E. faecalis ATCC 29212 = conditions: ATCC 29212, 24 h
Description: (§1) The minimum inhibitory concentration (MIC) of the peptides was determined by the broth microdilution technique, according to the Clinical and Laboratory Standards Institute (CLSI) guidelines, as previously described. Briefly, bacterial strains were incubated in BHI broth at 37 °C until they reached the exponential growth phase, and inocula were adjusted to 5 × 10^6 CFU/mL using calibration curves. Serial dilutions of the peptides to be evaluated in 96-well plates were made in 90 µL of Mueller Hinton broth at concentrations ranging from 200 to 6.25 µg/mL, and 10 µL of the inoculum adjusted to 5 × 10^6 CFU/mL was added. Finally, the plates were incubated at 37 °C for 24 h, and the absorbance at 620 nm was read. As a negative control, CMH, distilled water, and 10 µL of inoculum were used; for the positive control, vancomycin was used for Gram-positive strains and ciprofloxacin for Gram-negative strains at the MICs dictated by the CLSI; as a technical control, CMH with peptone water was used, and for the growth control, CMH was used with 10 µL of inoculum.
(§2) To determine the minimum bactericidal concentration (MBC), the 96-well plates where the MIC was determined were used as a starting point. From these, an aliquot of the controls and those wells where no apparent bacterial growth was observed were spotted onto trypticase soy agar plates. The plates were incubated at 37 °C for 24 h, and the reading was taken, identifying the lowest concentration of the peptide where there was no bacterial growth as the MBC.

[2] = system: K. pneumoniae ATCC 700603; conditions: ATCC 700603, 24 h
Description: as §1, §2

S. aureus ATCC 25923 = conditions: ATCC 25923, 24 h
Description: as §1, §2

P. aeruginosa ATCC 27853 = conditions: ATCC 27853, 24 h
Description: as §1, §2

E. coli ATCC 25922 = conditions: ATCC 25922, 24 h
Description: as §1, §2

[3] = system: S. aureus clinical isolate 11719; conditions: clinical isolate 11719, 24 h
Hemolysis assay = conditions: Percentage of hemolysis
Description: (§3) Whole blood was collected into EDTA tubes and centrifuged at 2500 rpm for 10 min. The plasma and buffy coat were removed, and the erythrocytes were washed three times with 0.9% saline to yield a 4% cell suspension. In 96-well plates, 100 µL of peptide dilutions (6.25–200 µg/mL) were prepared in triplicate, and 100 µL of the erythrocyte suspension was added (final hematocrit 2%). Plates were incubated at 37 °C for 2 h, and then centrifuged again at 2500 rpm for 10 min. A 100 µL aliquot of the supernatant was transferred to a fresh plate, and absorbance was measured at 450 nm. Saline and 1× Triton X-100 served as the negative and positive controls, respectively. Hemolysis (%) was calculated as follows: %hemolysis=treatment absorbance−saline absorbance/1×triton absorbance−saline absorbance

erythrocytes = test: Hemolysis assay; conditions: 2 h
Description: as §3

[4] = system: E. coli clinical isolate 1004 (susceptible); conditions: clinical isolate 1004 (susceptible, 24 h)
Description: (§4) E. coli isolates 1004 (susceptible), 129797 (resistant), and 301755 (MDR) were selected for evaluation. Isolate 1004 was sensitive to all antibiotics tested. […] These findings identify it as a multidrug-resistant (MDR) strain and an extended-spectrum beta-lactamase (ESBL)-producing bacterium. For S. aureus, isolates 109095, 117719, and 124653 were evaluated. All three were resistant to penicillin, indicating beta-lactamase production mediated by the blaZ gene. Studies have shown that up to 90% of S. aureus isolates worldwide are penicillin-resistant, which implies that this antibiotic is ineffective in infections caused by this pathogen. […] Isolate 124653 was resistant to penicillin, tetracycline, and erythromycin, with the latter belonging to the group of macrolides, antibiotics that inhibit protein synthesis through interaction with the 50S […] subunit. For E. faecalis three isolates were selected: strains 213 (sensitive to all the antibiotics tested), strain 82 (resistant to streptomycin), and strain 179 (resistant to gentamicin). These clinical isolates were selected to assess the antimicrobial activity of the peptide RWQWRWQWR and its analogues conjugated to fluorescent molecules in strains against strains with susceptibility profiles.
(§5) The analysis of synthesized peptides in ATCC reference strains and susceptible, resistant, and multidrug-resistant (MDR) clinical isolates was performed. The clinical isolates were obtained from the National Cancer Institute collection and were previously identified and antibiogrammed using the VITEK system. Additionally, the strains were characterized by MALDI-TOF. The strains were re-primed onto trypticase soy agar and subsequently preserved in Brain–Heart Infusion (BHI) broth containing 20% glycerol. For the MIC and MBC assays, the strains were reactivated and cultured in BHI until they reached their exponential growth phase.
as §1, §2

[5] = system: E. faecalis clinical isolate 179; conditions: clinical isolate 179, 24 h
Description: as §4, §5, §1, §2

[6] = system: E. faecalis clinical isolate 213; conditions: clinical isolate 213, 24 h
Description: as §4, §5, §1, §2

[7] = system: E. faecalis clinical isolate 82; conditions: clinical isolate 82, 24 h
Description: as §4, §5, §1, §2

[8] = system: E. coli clinical isolate 301755 (MDR); conditions: clinical isolate 301755 (MDR, 24 h)
Description: as §4, §5, §1, §2

[9] = system: S. aureus clinical isolate 124653; conditions: clinical isolate 124653, 24 h
Description: as §4, §5, §1, §2

[10] = system: S. aureus clinical isolate 109095; conditions: clinical isolate 109095, 24 h
Description: as §4, §5, §1, §2

[11] = system: E. coli clinical isolate 129797 (resistant); conditions: clinical isolate 129797 (resistant, 24 h)
Description: as §4, §5, §1, §2

Compound: CC(C)C[C@H](NC(=O)[C@H](CCCCN)NC(=O)[C@H](CCCCN)NC(=O)[C@H](CCc1ccccc1)NC(=O)[C@H](CCCNC(=N)N)NC(=O)[C@H](Cc1c[nH]c2ccccc12)NC(=O)[C@H](CCC(N)=O)NC(=O)[C@H](Cc1c[nH]c2ccccc12)NC(=O)[C@H](CCCNC(=N)N)NC(=O)[C@@H](N)CCCNC(=N)N)C(=O)NCC(=O)NCCCC[C@H](NC(=O)CNC(=O)[C@H](CC(C)C)NC(=O)[C@H](CCCCN)NC(=O)[C@H](CCCCN)NC(=O)[C@H](CCc1ccccc1)NC(=O)[C@H](CCCNC(=N)N)NC(=O)[C@H](Cc1c[nH]c2ccccc12)NC(=O)[C@H](CCC(N)=O)NC(=O)[C@H](Cc1c[nH]c2ccccc12)NC(=O)[C@H](CCCNC(=N)N)NC(=O)[C@@H](N)CCCNC(=N)N)C(=O)NCCCCCC(N)=O [peptide 2, (RRWQWR-hF-KKLG)2K-Ahx] (I: H-RRWQWR[hPhe]KKLGK[Ahx]-NH2 / II: H-RRWQWR[hPhe]KKLG; amide I:12-II:C; N-terminus assumed)
IC50 [1]: 109 µg/mL and 32 µM

Minimal inhibitory concentration (MIC) (E. faecalis ATCC 29212): 54 µM (≈ 99.6 µg/mL)
Minimal inhibitory concentration (MIC) [2]: > 108 µM
Minimal inhibitory concentration (MIC) (S. aureus ATCC 25923): 108 µM (≈ 199 µg/mL)
Minimal inhibitory concentration (MIC) (P. aeruginosa ATCC 27853): > 108 µM
Minimal inhibitory concentration (MIC) (E. coli ATCC 25922): 108 µM (≈ 199 µg/mL)
Minimal inhibitory concentration (MIC) [3]: > 108 µM
Minimal inhibitory concentration (MIC) [4]: 108 µM (≈ 199 µg/mL)
Minimal inhibitory concentration (MIC) [5]: > 108 µM
Minimal inhibitory concentration (MIC) [6]: 108 µM (≈ 199 µg/mL)
Minimal inhibitory concentration (MIC) [7]: 54 µM (≈ 99.6 µg/mL)
Minimal inhibitory concentration (MIC) [8]: 108 µM (≈ 199 µg/mL)
Minimal inhibitory concentration (MIC) [9]: > 108 µM
Minimal inhibitory concentration (MIC) [10]: > 108 µM
Minimal inhibitory concentration (MIC) [11]: > 108 µM
Compound: N=C(N)NCCC[C@H](NC(=O)[C@H](Cc1c[nH]c2ccccc12)NC(=O)[C@H](CCC(N)=O)NC(=O)[C@H](Cc1c[nH]c2ccccc12)NC(=O)[C@H](CCCNC(=N)N)NC(=O)[C@H](Cc1c[nH]c2ccccc12)NC(=O)[C@H](CCC(N)=O)NC(=O)[C@H](Cc1c[nH]c2ccccc12)NC(=O)[C@H](CCCNC(=N)N)NC(=O)c1ccc2c(c1)C(=O)OC21c2ccc(O)cc2Oc2cc(O)ccc21)C(N)=O [FAM-1, FAM-RWQWRWQWR] (5FAM-RWQWRWQWR-NH2)
Minimal bactericidal concentration (MBC) (E. faecalis ATCC 29212): > 108 µM
Minimal bactericidal concentration (MBC) [2]: > 108 µM
Minimal bactericidal concentration (MBC) (S. aureus ATCC 25923): > 108 µM
Minimal bactericidal concentration (MBC) (P. aeruginosa ATCC 27853): > 108 µM
Minimal bactericidal concentration (MBC) (E. coli ATCC 25922): > 108 µM
Minimal bactericidal concentration (MBC) [3]: > 108 µM
hemolysis at 2 h (Hemolysis assay): 17%
Therapeutic index (erythrocytes): 0.25
IC50 [1]: > 200 µg/mL and > 108 µM
Minimal bactericidal concentration (MBC) [4]: > 108 µM
Minimal bactericidal concentration (MBC) [5]: > 108 µM
Minimal bactericidal concentration (MBC) [6]: > 108 µM
Minimal bactericidal concentration (MBC) [7]: > 108 µM
Minimal bactericidal concentration (MBC) [8]: > 108 µM
Minimal bactericidal concentration (MBC) [9]: > 108 µM
Minimal bactericidal concentration (MBC) [10]: > 108 µM
Minimal bactericidal concentration (MBC) [11]: > 108 µM

— paper PMC12383145, “Fluorescent Peptides Internalize HeLa Cells and Kill Multidrug-Resistant Clinical Bacterial Isolates” (Antibiotics, 2025)
